# Source: ChEMBL document CHEMBL4351009, “hERG optimizations of IMB1603, discovery of alternative benzothiazinones as new antitubercular agents” (Eur J Med Chem, 2019)
# How the values were obtained:
# [1] = system: Mycobacterium tuberculosis; assay: Antimycobacterial activity against Mycobacterium tuberculosis H37Rv ATCC 27294 assessed as reduction in bacterial cell viability incubated for 7 days by microplate alamar blue assay; assay type: functional; conditions: H37Rv ATCC 27294, 168 h
# hERG (KCNH2) = hERG (KCNH2) (Homo sapiens, UniProt Q12809); assay: Inhibition of human ERG transfected in HEK293 cells at 10 uM by whole cell patch clamp assay relative to control; assay type: cell-based; conditions: HEK293 cells transfected with human ERG
# Sequence of hERG (KCNH2) (Q12809 whole entry): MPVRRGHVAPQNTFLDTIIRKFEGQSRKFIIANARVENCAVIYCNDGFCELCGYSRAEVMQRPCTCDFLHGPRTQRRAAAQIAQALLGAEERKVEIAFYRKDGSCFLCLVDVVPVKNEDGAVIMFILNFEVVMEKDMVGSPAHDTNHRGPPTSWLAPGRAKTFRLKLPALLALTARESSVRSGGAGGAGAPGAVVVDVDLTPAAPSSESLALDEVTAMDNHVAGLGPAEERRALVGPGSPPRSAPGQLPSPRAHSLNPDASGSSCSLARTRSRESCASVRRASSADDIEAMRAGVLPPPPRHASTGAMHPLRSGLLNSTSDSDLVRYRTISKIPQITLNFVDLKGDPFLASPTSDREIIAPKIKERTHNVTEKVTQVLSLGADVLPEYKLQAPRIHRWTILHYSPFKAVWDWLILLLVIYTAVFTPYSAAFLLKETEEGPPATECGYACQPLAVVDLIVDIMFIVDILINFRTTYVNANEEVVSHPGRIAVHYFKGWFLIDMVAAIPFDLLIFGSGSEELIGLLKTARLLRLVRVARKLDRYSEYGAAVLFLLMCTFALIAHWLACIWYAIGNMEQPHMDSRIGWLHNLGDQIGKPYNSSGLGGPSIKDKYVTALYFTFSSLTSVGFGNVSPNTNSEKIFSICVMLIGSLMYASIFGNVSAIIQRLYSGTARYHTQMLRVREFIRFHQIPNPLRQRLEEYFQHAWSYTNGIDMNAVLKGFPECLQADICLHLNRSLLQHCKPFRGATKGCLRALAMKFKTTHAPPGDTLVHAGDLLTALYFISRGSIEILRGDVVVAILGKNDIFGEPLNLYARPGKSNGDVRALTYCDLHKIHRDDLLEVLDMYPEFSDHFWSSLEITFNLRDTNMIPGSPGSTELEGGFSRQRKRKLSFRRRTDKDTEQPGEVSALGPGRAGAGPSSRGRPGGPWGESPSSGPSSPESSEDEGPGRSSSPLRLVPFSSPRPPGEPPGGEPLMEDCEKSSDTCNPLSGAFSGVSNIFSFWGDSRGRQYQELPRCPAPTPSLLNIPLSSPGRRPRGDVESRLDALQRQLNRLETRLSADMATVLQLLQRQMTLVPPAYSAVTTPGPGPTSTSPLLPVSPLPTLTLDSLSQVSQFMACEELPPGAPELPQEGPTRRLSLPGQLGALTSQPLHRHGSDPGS
# [2] = AUC (0 to t) in SPF ICR mouse at 25 mg/kg, po measured upto 24 hrs by HPLC analysis; assay type: ADME, organism-based; parameters: dose 25 mg/kg, time < 24 hr, route oral; conditions: in vivo
# [3] = Tmax in SPF ICR mouse at 25 mg/kg, po measured upto 24 hrs by HPLC analysis; assay type: ADME, organism-based; conditions: in vivo
# [4] = Acute toxicity in ICR mouse assessed as mouse survival at 500 mg/kg, po observed continuously for 4 hrs and each hr for next 24 hrs and at 8 hrs interval for following 7 days; assay type: organism-based; conditions: in vivo
# [5] = Cmax in SPF ICR mouse at 25 mg/kg, po measured upto 24 hrs by HPLC analysis; assay type: ADME, organism-based; parameters: dose 25 mg/kg, route oral; conditions: in vivo
# [6] = Half life in SPF ICR mouse at 25 mg/kg, po measured upto 24 hrs by HPLC analysis; assay type: ADME, organism-based; conditions: in vivo
# [7] = system: Mycobacterium tuberculosis; assay: Antimycobacterial activity against Mycobacterium tuberculosis H37Rv infected in BALB/c mouse assessed as reduction in colony forming unit in lung at 25 mg/kg, po administered once daily for 5 days a week for 3 weeks; assay type: functional
SMILES,MIC [1] [µM],inhibition at 10 µM (hERG (KCNH2)) [%],other results
O=c1nc(N2CCC3(CCN(Cc4ccncc4)C3)CC2)sc2c([N+](=O)[O-])cc(C(F)(F)F)cc12,0.122,74.1,
CCC(c1ccc(C(F)(F)F)cc1)N1CCC2(CCN(c3nc(=O)c4cc(C(F)(F)F)cc([N+](=O)[O-])c4s3)CC2)CC1 (centres undefined),< 0.035,69.7,
O=c1nc(N2CC3CCC2CN3Cc2ccc(F)cc2)sc2c([N+](=O)[O-])cc(C(F)(F)F)cc12 (centres undefined),0.078,34.9,AUC(0-t) at 24 h [2]: 3550 ng·h/mL; Tmax [3]: 15 min; Activity [4]: Non-Toxic; Cmax [5]: 3040 ng/mL; half-life [6]: 75 min
CC(c1ccc(Br)cc1)N1CCC2(CCN(c3nc(=O)c4cc(C(F)(F)F)cc([N+](=O)[O-])c4s3)CC2)CC1 (centres undefined),< 0.035,77.2,
O=c1nc(N2CCC3(CCN(Cc4ccc([N+](=O)[O-])c(Br)c4)C3)CC2)sc2c([N+](=O)[O-])cc(C(F)(F)F)cc12,< 0.035,88.6,
O=c1nc(N2CCC3(CCN(Cc4ccc(C(F)(F)F)cc4C(F)(F)F)C3)CC2)sc2c([N+](=O)[O-])cc(C(F)(F)F)cc12,< 0.035,68.6,
O=c1nc(N2CCC3(CCN(Cc4ncco4)C3)CC2)sc2c([N+](=O)[O-])cc(C(F)(F)F)cc12,0.248,53.2,
O=c1nc(N2CCC3(CCN(c4ccc(F)cc4)C3)CC2)sc2c([N+](=O)[O-])cc(C(F)(F)F)cc12,< 0.035,23,AUC(0-t) at 24 h [2]: 5030 ng·h/mL; Tmax [3]: 30 min; Activity [4]: Non-Toxic; Cmax [5]: 1610 ng/mL; half-life [6]: 287 min
O=c1nc(N2CCC3(CCN(Cc4ccc(OC(F)(F)F)cc4)C3)CC2)sc2c([N+](=O)[O-])cc(C(F)(F)F)cc12,< 0.035,90.2,
O=c1nc(N2CCC3(CCN(Cc4ccc(Br)cc4)CC3)CC2)sc2c([N+](=O)[O-])cc(C(F)(F)F)cc12,< 0.035,97,
CC(c1ccc(C(F)(F)F)cc1)N1CCC2(CCN(c3nc(=O)c4cc(C(F)(F)F)cc([N+](=O)[O-])c4s3)CC2)CC1 (centres undefined),< 0.035,72.9,
O=c1nc(N2CC3CN(Cc4ccc(F)cc4)CC3C2)sc2c([N+](=O)[O-])cc(C(F)(F)F)cc12 (centres undefined),0.248,,
O=c1nc(N2CCC3(CCN(Cc4cccc(F)c4F)C3)CC2)sc2c([N+](=O)[O-])cc(C(F)(F)F)cc12,< 0.035,88.5,
O=c1nc(N2CCC3(CCN(Cc4ccc(F)cc4)C3)CC2)sc2c([N+](=O)[O-])cc(C(F)(F)F)cc12,< 0.035,95.7,Activity [7]: 3.2 log10CFU
O=c1nc(N2CCC3(CCN(CCc4ccc(F)cc4)C3)CC2)sc2c([N+](=O)[O-])cc(C(F)(F)F)cc12,0.055,92.7,
N#Cc1ccc(CN2CCC3(CCN(c4nc(=O)c5cc(C(F)(F)F)cc([N+](=O)[O-])c5s4)CC3)C2)cc1,< 0.035,90.6,
O=c1nc(N2CCC3(CCN(Cc4cccc5ccccc45)C3)CC2)sc2c([N+](=O)[O-])cc(C(F)(F)F)cc12,0.055,,
CC(c1ccc(F)cc1)N1CCC2(CCN(c3nc(=O)c4cc(C(F)(F)F)cc([N+](=O)[O-])c4s3)CC2)CC1 (centres undefined),0.107,74,

SMILES,MIC [1] [µM],inhibition at 10 µM (hERG (KCNH2)) [%],other results
O=c1nc(N2CCC3(CCN(Cc4cccnc4)C3)CC2)sc2c([N+](=O)[O-])cc(C(F)(F)F)cc12,0.235,,
O=c1nc(N2CC3CC2CN3Cc2ccc(F)cc2)sc2c([N+](=O)[O-])cc(C(F)(F)F)cc12 (centres undefined),< 0.035,94.3,
CO[C@H]1/C=C/O[C@@]2(C)Oc3c(C)c(O)c4c(O)c(c(/C=N/N5CCN(C)CC5)c(O)c4c3C2=O)NC(=O)/C(C)=C\C=C\[C@H](C)[C@H](O)[C@@H](C)[C@@H](O)[C@@H](C)[C@H](OC(C)=O)[C@@H]1C [RIFAMPIN],0.164,,
O=c1nc(N2CCN(CC3CCCCC3)CC2)sc2c([N+](=O)[O-])cc(C(F)(F)F)cc12 [MACOZINONE],< 0.035,41.6,AUC(0-t) at 24 h [2]: 2480 ng·h/mL; Tmax [3]: 19.8 min; Activity [4]: Non-Toxic; Cmax [5]: 1750 ng/mL; half-life [6]: 380 min
O=c1nc(N2CCC3(CCN(Cc4ccc(C(F)(F)F)cc4)CC3)CC2)sc2c([N+](=O)[O-])cc(C(F)(F)F)cc12,< 0.035,94.6,
CC(c1ccc(Cl)cc1)N1CCC2(CCN(c3nc(=O)c4cc(C(F)(F)F)cc([N+](=O)[O-])c4s3)CC2)CC1 (centres undefined),< 0.035,73.4,
O=c1nc(N2CCN(C3CCN(Cc4ccc(F)cc4)CC3)CC2)sc2c([N+](=O)[O-])cc(C(F)(F)F)cc12,0.054,95.6,
O=c1nc(N2CCC3(CCN(Cc4ccccn4)C3)CC2)sc2c([N+](=O)[O-])cc(C(F)(F)F)cc12,0.477,,
Cn1cccc1CN1CCC2(CCN(c3nc(=O)c4cc(C(F)(F)F)cc([N+](=O)[O-])c4s3)CC2)C1,0.479,,
O=c1nc(N2CCC3(CCN(CCCc4ccc(F)cc4)C3)CC2)sc2c([N+](=O)[O-])cc(C(F)(F)F)cc12,< 0.035,85.8,
O=c1nc(N2CCC3(CCN(Cc4ccc5ccccc5c4)C3)CC2)sc2c([N+](=O)[O-])cc(C(F)(F)F)cc12,< 0.035,78.1,
NNC(=O)c1ccncc1 [ISONIAZID],0.269,,
O=c1nc(N2CCC3(CCN(Cc4ccccc4F)C3)CC2)sc2c([N+](=O)[O-])cc(C(F)(F)F)cc12,< 0.035,94.9,
O=c1nc(N2CCC3(CCN(Cc4ccc[nH]4)C3)CC2)sc2c([N+](=O)[O-])cc(C(F)(F)F)cc12,1.58,,
COc1ccc2[nH]cc(CN3CCC4(CCN(c5nc(=O)c6cc(C(F)(F)F)cc([N+](=O)[O-])c6s5)CC4)C3)c2c1,1.48,,
O=c1nc(N2CCC3(CCN(Cc4ccc([N+](=O)[O-])cc4)C3)CC2)sc2c([N+](=O)[O-])cc(C(F)(F)F)cc12,< 0.035,94.1,
O=c1nc(N2CCC3(CCN(Cc4cccs4)C3)CC2)sc2c([N+](=O)[O-])cc(C(F)(F)F)cc12,< 0.035,96.2,
O=c1nc(N2CCC3(CCN(Cc4cc(C(F)(F)F)cc(C(F)(F)F)c4)C3)CC2)sc2c([N+](=O)[O-])cc(C(F)(F)F)cc12,< 0.035,83.3,
